US20060153781A1, “Repair of dna mutagenic damage” (Novogen Research Pty Ltd, a Corporation, priority 2002, published 2006)
Several values for one entry are separate records, joined by “and”; a condition that tells them apart may be missing. Identical values can stand only once.

Experiments:
Assay type in all cases: in vivo
p53 in the epidermis = assay: P53 staining in skin biopsies of human volunteers following UV irradiation
Procedure: (§1) Equol was applied to the skin of five human volunteers immediately after, and at 4 hours and 6 hours post-UV irradiation. A control lotion was also used containing no equol. Twenty-four hours after UV irradiation, skin biopsies were taken and MT production was measured using immunohistochemistry.
The skin biopsies from the five human volunteers from Example 2 were tested for P53 staining following UV irradiation.

[1] = system: metallothionein (MT) in the epidermis; assay: MT production in skin biopsies of human volunteers after UV irradiation (immunohistochemistry); conditions: 24 hrs after 2.5 MED SSUV
Procedure: as §1
Approximately half of the cells in the basal epidermis constitutively expressed MT at baseline, whereas almost none of the cells in the more superficial layers of the epidermis expressed MT. At 24 hrs after exposure to 2.5 MED SSUV, there were apparent differences in the expression of MT in the basal layers of the epidermis between sections treated with equol and those treated with DMSO in base lotion (vehicle). In all 5 participants, the expression of MT was higher in the skin treated with equol, with the magnitude of the difference ranging from +4% to +21%.

[2] = system: cyclobutane pyrimidine dimers (CPD) in skin of hairless mice; assay: Induction of epidermal CPD-positive cells in skin of hairless mice exposed to SSUV (immunohistochemistry); conditions: for reduction in the number of CPD compared with control group (vehicle alone): equol lotion 20 μM for 7 days prior and 5 days after SSUV, p<0.05; for CPD + ve cells/linear cm: hairless mice; for reduction of dimers: equol applied immediately after SSUV exposure and continuing for 5 d
Excerpt: The effect of equol on the induction of CPD was examined in the skin of hairless mice (a standard model for human dermatological investigations) exposed to solar simulated ultraviolet radiation (SSUV). At various time points after SSUV, dorsal skin was excised, fixed for 6 hr in a standard fixing medium (HistoChoice™, Amersco Inc, Solon, Ohio, USA), processed and paraffin-embedded. Pyrimidine dimers were detected immunohistochemically using citric acid antigen retrieval and the H3 anti-pyrimidine dimer antibody. The number of dimer-positive cells was counted manually in 30 fields per mouse, at 40× magnification.

CPDs in the epidermis = assay: Cyclobutane pyrimidine dimer formation in skin biopsies of human volunteers after UV irradiation (immunohistochemistry)
Procedure: as §1
The skin biopsies from the five human volunteers from Example 2 were tested for cyclobutane pyrimidine dimer formation using immunohistochemistry.

[3] = 24 hrs after 2.5 MED SSUV, equol 200 μM topical, one row per subject (five volunteers)
[4] = equol 200 μM topical, one row per subject (five volunteers)
[5] = 24 hrs after 2.5 MED SSUV, lotion containing equol 200 μM, one row per subject (five volunteers)

Oc1ccc(C2COc3cc(O)ccc3C2)cc1 (stereo not shown) [equol]
p53 staining, Basal epidermis, % positive cells (p53 in the epidermis; [3]): 22% and 8% and 11% and 6% and 26% | p53 staining, Basal epidermis, neg (cell count) (p53 in the epidermis; [3]): 161 and 172 and 250 and 140 and 118 | p53 staining, Basal epidermis, pos (cell count) (p53 in the epidermis; [3]): 46 and 15 and 31 and 9 and 41 | p53 staining, Total epidermis, % positive cells (p53 in the epidermis; [3]): 26% and 21% and 9% and 4% and 25% | p53 staining, Total epidermis, neg (cell count) (p53 in the epidermis; [3]): 270 and 337 and 500 and 287 and 227 | p53 staining, Total epidermis, pos (cell count) (p53 in the epidermis; [3]): 94 and 87 and 50 and 13 and 76 | p53 staining, Upper epidermis, % positive cells (p53 in the epidermis; [3]): 31% and 30% and 7% and 3% and 24% | p53 staining, Upper epidermis, neg (cell count) (p53 in the epidermis; [3]): 109 (2×) and 165 and 250 and 147 | p53 staining, Upper epidermis, pos (cell count) (p53 in the epidermis; [3]): 48 and 72 and 19 and 4 and 35 | percentage of p53 expression in upper and/or basal epidermis (in words) (p53 in the epidermis; 24 hrs after UV exposure, equol treated vs vehicle): reduced in four out of five equol treated subjects | reduction of percentage of p53 staining compared with vehicle controls (p53 in the epidermis; subjects N13PDO and N14GBO, 24 hrs after UV exposure, 'generally'): more than 50% | expression of MT in skin treated with equol vs vehicle (in words) ([1]; all 5 participants): higher | MT staining, Basal epidermis, % positive cells [1, 4]: 76% and 59% and 69% and 77% and 60% | MT staining, Basal epidermis, neg (cell count) [1, 4]: 118 and 188 and 239 and 154 and 157 | MT staining, Basal epidermis, pos (cell count) [1, 4]: 380 and 271 and 531 and 522 and 233 | MT staining, Total epidermis, % positive cells [1, 4]: 56% and 50% and 63% and 62% and 51% | MT staining, Total epidermis, neg (cell count) [1, 4]: 303 and 270 and 315 and 323 and 225 | MT staining, Total epidermis, pos (cell count) [1, 4]: 382 and 271 and 539 and 527 and 234 | MT staining, Upper epidermis, % positive cells [1, 4]: 1% (2×) and 0% and 10% and 3% | MT staining, Upper epidermis, neg (cell count) [1, 4]: 185 and 82 and 76 and 169 and 68 | MT staining, Upper epidermis, pos (cell count) [1, 4]: 2 and 0 and 8 and 5 and 1 | reduction in the number of CPD compared with control group (vehicle alone) ([2]; 1 hour after SSUV): 54% | CPD + ve cells/linear cm ([2]; 1 hr post-SSUV, equol lotion 20 μM daily for 7 days prior to and following 1×3 MED SSUV): 238 ± 22 cells/linear cm | reduction of dimers ([2]; 1 day post-irradiation): 23% | reduction in the number of CPD compared with control group (vehicle alone) ([2]; 24 hours after SSUV): 50% | CPD + ve cells/linear cm ([2]; 24 hr post-SSUV, equol lotion 20 μM daily for 7 days prior to and following 1×3 MED SSUV): 167 ± 17 cells/linear cm | reduction in the number of CPD compared with control group (vehicle alone) ([2]; 48 hours after SSUV): 26% | reduction of dimers ([2]; 2 d post-irradiation, data not shown): 42% | effect on dimer induction and repair (in words) ([2]; equol lotion 20 μM daily for 7 days prior to and following 1×3 MED SSUV): reduce the initial induction of dimers, and to enhance the rate of their repair | CPD staining, Basal epidermis, % positive cells (CPDs in the epidermis; [5]): 15% and 0% and 10% and 25% (2×) | CPD staining, Basal epidermis, neg (cell count) (CPDs in the epidermis; [5]): 94 and 279 and 181 and 134 and 125 | CPD staining, Basal epidermis, pos (cell count) (CPDs in the epidermis; [5]): 16 and 1 and 21 and 44 and 41 | CPD staining, Total epidermis, % positive cells (CPDs in the epidermis; [5]): 19% and 5% and 25% and 31% (2×) | CPD staining, Total epidermis, neg (cell count) (CPDs in the epidermis; [5]): 164 and 349 and 279 and 213 and 188 | CPD staining, Total epidermis, pos (cell count) (CPDs in the epidermis; [5]): 39 and 18 and 92 and 94 and 85 | CPD staining, Upper epidermis, % positive cells (CPDs in the epidermis; [5]): 25% and 20% and 42% and 39% and 41% | CPD staining, Upper epidermis, neg (cell count) (CPDs in the epidermis; [5]): 70 (2×) and 98 and 79 and 63 | CPD staining, Upper epidermis, pos (cell count) (CPDs in the epidermis; [5]): 23 and 17 and 71 and 50 and 44 | CPD-positive cells, equol lotion vs DMSO in base lotion (vehicle) (in words) (CPDs in the epidermis; 24 hrs after UV exposure, 4 out of 5 participants): proportionally less CPD-positive cells | CPD damage, data from all participants pooled (in words) (CPDs in the epidermis; at 24 hours, pooled participants): moderately lower levels of CPD damage
